Assay results from ChEMBL document CHEMBL5338805, “Discovery of the First Subnanomolar PPARα/δ Dual Agonist for the Treatment of Cholestatic Liver Diseases” (J Med Chem, 2023).
The source made the active and inactive calls.

Tests used:
[1] = Down-streaming of NTCP gene expression in C57BL/6JNifdc mouse liver assessed as hepatic resorption of bile acid administered at 0.03 to 0.1 mg/kg, po for 3 days measured after 6 hrs of last administration by real-time PCR analysis; format: ADME, organism-based; conditions: in vivo, 78 h, dose 0.03-0.1 mg/kg, time 3.25 day
[2] = Anti-cholestatic activity in ANIT-induced C57BL/6Nifdc mouse model assessed as decrease in serum aspartate aminotransferase at 0.03 to 0.1 mg/kg, po upto 42 hrs measured after 48 hrs; format: ADME, organism-based; conditions: in vivo, 90 h, dose 0.03-0.1 mg/kg
[3] = Anti-cholestatic activity in ANIT-induced C57BL/6Nifdc mouse model assessed as decrease in liver HCA at 0.03 to 0.1 mg/kg, po upto 42 hrs measured after 48 hrs; format: ADME, organism-based; conditions: in vivo, 90 h, dose 0.03-0.1 mg/kg
[4] = In vivo upregulation of PPAR delta in C57BL/6JNifdc mouse liver administered at 0.03 mg/kg, po for 3 days measured after 6 hrs of last administration by real-time PCR analysis; format: ADME, organism-based; conditions: 78 h
[5] = In vivo upregulation of PPAR alpha in C57BL/6JNifdc mouse liver administered orally for 3 days measured after 6 hrs of last administration by real-time PCR analysis; format: ADME, organism-based; conditions: po, 78 h, dose 0.03-0.1 mg/kg, time 3.25 day
[6] = Upregulation of Mdr2 gene expression in C57BL/6JNifdc mouse liver assessed as increased efflux of bile acid administered at 0.03 to 0.1 mg/kg, po for 3 days measured after 6 hrs of last administration by real-time PCR analysis; format: ADME, organism-based; conditions: in vivo, 78 h, dose 0.03-0.1 mg/kg, time 3.25 day
[7] = biological target: Retinoic acid receptor alpha (Homo sapiens) (UniProt P10276); assay: Agonist activity at RARalpha (unknown origin) transfected in african green monkey COS7 cells assessed transactivation incubated at 1 uM for 16 hrs by luciferase assay; format: cell-based
Chain of Retinoic acid receptor alpha (Homo sapiens) (P10276 whole entry): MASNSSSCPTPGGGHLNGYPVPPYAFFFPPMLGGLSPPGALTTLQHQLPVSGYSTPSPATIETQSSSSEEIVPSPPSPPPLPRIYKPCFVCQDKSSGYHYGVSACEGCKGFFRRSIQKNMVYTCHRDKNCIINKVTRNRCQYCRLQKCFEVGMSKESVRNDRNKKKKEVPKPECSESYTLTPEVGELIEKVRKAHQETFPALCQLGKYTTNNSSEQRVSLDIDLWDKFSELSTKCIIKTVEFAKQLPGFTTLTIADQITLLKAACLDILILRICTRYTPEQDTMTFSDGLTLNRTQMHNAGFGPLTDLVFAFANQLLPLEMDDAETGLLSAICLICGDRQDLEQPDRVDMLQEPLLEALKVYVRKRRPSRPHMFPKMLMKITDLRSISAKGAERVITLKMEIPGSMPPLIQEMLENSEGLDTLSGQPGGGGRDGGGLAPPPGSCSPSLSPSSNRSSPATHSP

[8] = Mutagenicity in Salmonella typhimurium TA100 measured at 0.21 to 16.67 mg/ml for 72 hrs by mini-Ames test; format: toxicity; conditions: salmonella enterica subsp. enterica serovar typhimurium, dose 0.21-16.67 mg/ml
[9] = Anti-cholestatic activity in ANIT-induced C57BL/6Nifdc mouse model assessed as downregulation of proinflammatory Il1b gene at 0.03 to 0.1 mg/kg, po upto 42 hrs measured after 48 hrs; format: ADME, organism-based; conditions: in vivo, 90 h, dose 0.03-0.1 mg/kg
[10] = Down-streaming of Cyp7a1 gene expression in C57BL/6JNifdc mouse liver assessed as hepatic resorption of bile acid administered at 0.03 mg/kg, po for 3 days measured after 6 hrs of last administration by real-time PCR analysis; format: ADME, organism-based; conditions: in vivo, 78 h
[11] = Anti-cholestatic activity in ANIT-induced C57BL/6Nifdc mouse model assessed as downregulation of proinflammatory Tnf gene at 0.03 to 0.1 mg/kg, po upto 42 hrs measured after 48 hrs; format: ADME, organism-based; conditions: in vivo, 90 h, dose 0.03-0.1 mg/kg
[12] = Anti-cholestatic activity in ANIT-induced C57BL/6Nifdc mouse model assessed as downregulation of NF-kappaB signalling pathway at 0.03 to 0.1 mg/kg, po upto 42 hrs measured after 48 hrs; format: ADME, organism-based; conditions: in vivo, 90 h, dose 0.03-0.1 mg/kg
HEK293 = assay: Cytotoxicity against HEK293 cells incubated upto 100 uM for 24 hrs by CCK8 assay; format: toxicity, cell-based; conditions: human, hek293, 24 h
COS-7 = assay: Cytotoxicity against african green monkey COS7 cells incubated upto 100 uM for 24 hrs by CCK8 assay; format: toxicity, cell-based; conditions: chlorocebus aethiops, cos-7, 24 h
[13] = Anti-fibrosis activity in Ccl4-induced C57BL/6Nifdc mouse model assessed as decrease in inflammatory cells administered orally for 3 weeks; format: ADME, cell-based; conditions: in vivo, po, 504 h, dose 0.03-0.1 mg/kg
[14] = Anti-cholestatic activity in ANIT-induced C57BL/6Nifdc mouse model assessed as downregulation of proinflammatory Il6 gene at 0.03 to 0.1 mg/kg, po upto 42 hrs measured after 48 hrs; format: ADME, organism-based; conditions: in vivo, 90 h, dose 0.03-0.1 mg/kg
[15] = Anti-cholestatic activity in ANIT-induced C57BL/6Nifdc mouse model assessed as decrease in liver TCA at 0.03 to 0.1 mg/kg, po upto 42 hrs measured after 48 hrs; format: ADME, organism-based; conditions: in vivo, 90 h, dose 0.03-0.1 mg/kg
[16] = Clearance in fasted Sprague-Dawley rat at 2 mg/kg, IV measured at 0.083 to 24 hrs by LC-MS/MS analysis; format: ADME, organism-based; conditions: in vivo, time 0.083-24 hrs
HepG2 = assay: Cytotoxicity against human HepG2 cells incubated upto 100 uM for 24 hrs by CCK8 assay; format: toxicity, cell-based; conditions: hepg2, 24 h
[17] = Anti-cholestatic activity in ANIT-induced C57BL/6Nifdc mouse model assessed as decrease in liver beta-MCA at 0.03 to 0.1 mg/kg, po upto 42 hrs measured after 48 hrs; format: ADME, organism-based; conditions: in vivo, 90 h, dose 0.03-0.1 mg/kg
[18] = Anti-cholestatic activity in ANIT-induced C57BL/6Nifdc mouse model assessed as decrease in total p65 level at 0.03 to 0.1 mg/kg, po upto 42 hrs measured after 48 hrs by Western blot analysis; format: ADME, organism-based; conditions: in vivo, 90 h, dose 0.03-0.1 mg/kg
[19] = Mutagenicity in Salmonella typhimurium TA98 measured at 0.21 to 16.67 mg/ml for 72 hrs by mini-Ames test; format: toxicity; conditions: salmonella enterica subsp. enterica serovar typhimurium, dose 0.21-16.67 mg/ml
[20] = biological target: Retinoic acid receptor beta (Homo sapiens) (UniProt P10826); assay: Agonist activity at RARbeta (unknown origin) transfected in african green monkey COS7 cells assessed transactivation incubated at 1 uM for 16 hrs by luciferase assay; format: cell-based
Chain of Retinoic acid receptor beta (Homo sapiens) (P10826 whole entry): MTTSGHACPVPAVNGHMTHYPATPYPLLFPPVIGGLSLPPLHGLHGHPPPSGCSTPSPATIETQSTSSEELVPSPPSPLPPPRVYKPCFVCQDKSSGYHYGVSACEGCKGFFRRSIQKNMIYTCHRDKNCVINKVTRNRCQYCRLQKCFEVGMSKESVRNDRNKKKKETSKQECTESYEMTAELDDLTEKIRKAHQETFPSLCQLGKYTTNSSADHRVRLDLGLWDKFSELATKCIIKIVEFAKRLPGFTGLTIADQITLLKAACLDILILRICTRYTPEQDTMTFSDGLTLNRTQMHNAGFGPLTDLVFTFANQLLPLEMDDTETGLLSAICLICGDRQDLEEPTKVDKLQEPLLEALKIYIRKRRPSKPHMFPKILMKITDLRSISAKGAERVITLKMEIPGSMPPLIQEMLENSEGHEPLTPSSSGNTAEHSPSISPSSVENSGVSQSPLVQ

[21] = AUC in fasted Sprague-Dawley rat at 2 mg/kg, IV measured at 0.083 to 24 hrs by LC-MS/MS analysis; format: ADME, organism-based; parameters: dose 2 mg/kg, time upper 24 hrs, time lower 0.083 hrs, route iv; conditions: in vivo
[22] = Anti-cholestatic activity in ANIT-induced C57BL/6Nifdc mouse model assessed as decrease in liver DHLCA at 0.03 to 0.1 mg/kg, po upto 42 hrs measured after 48 hrs; format: ADME, organism-based; conditions: in vivo, 90 h, dose 0.03-0.1 mg/kg
[23] = Clearance in fasted Sprague-Dawley rat at 10 mg/kg, po measured at 0.083 to 24 hrs by LC-MS/MS analysis; format: ADME, organism-based; conditions: in vivo, time 0.083-24 hrs
[24] = biological target: Voltage-gated inwardly rectifying potassium channel KCNH2 (Homo sapiens, UniProt Q12809); assay: Inhibition of human ERG by whole cell patch clamp method; format: toxicity
Chain of Voltage-gated inwardly rectifying potassium channel KCNH2 (Q12809 whole entry): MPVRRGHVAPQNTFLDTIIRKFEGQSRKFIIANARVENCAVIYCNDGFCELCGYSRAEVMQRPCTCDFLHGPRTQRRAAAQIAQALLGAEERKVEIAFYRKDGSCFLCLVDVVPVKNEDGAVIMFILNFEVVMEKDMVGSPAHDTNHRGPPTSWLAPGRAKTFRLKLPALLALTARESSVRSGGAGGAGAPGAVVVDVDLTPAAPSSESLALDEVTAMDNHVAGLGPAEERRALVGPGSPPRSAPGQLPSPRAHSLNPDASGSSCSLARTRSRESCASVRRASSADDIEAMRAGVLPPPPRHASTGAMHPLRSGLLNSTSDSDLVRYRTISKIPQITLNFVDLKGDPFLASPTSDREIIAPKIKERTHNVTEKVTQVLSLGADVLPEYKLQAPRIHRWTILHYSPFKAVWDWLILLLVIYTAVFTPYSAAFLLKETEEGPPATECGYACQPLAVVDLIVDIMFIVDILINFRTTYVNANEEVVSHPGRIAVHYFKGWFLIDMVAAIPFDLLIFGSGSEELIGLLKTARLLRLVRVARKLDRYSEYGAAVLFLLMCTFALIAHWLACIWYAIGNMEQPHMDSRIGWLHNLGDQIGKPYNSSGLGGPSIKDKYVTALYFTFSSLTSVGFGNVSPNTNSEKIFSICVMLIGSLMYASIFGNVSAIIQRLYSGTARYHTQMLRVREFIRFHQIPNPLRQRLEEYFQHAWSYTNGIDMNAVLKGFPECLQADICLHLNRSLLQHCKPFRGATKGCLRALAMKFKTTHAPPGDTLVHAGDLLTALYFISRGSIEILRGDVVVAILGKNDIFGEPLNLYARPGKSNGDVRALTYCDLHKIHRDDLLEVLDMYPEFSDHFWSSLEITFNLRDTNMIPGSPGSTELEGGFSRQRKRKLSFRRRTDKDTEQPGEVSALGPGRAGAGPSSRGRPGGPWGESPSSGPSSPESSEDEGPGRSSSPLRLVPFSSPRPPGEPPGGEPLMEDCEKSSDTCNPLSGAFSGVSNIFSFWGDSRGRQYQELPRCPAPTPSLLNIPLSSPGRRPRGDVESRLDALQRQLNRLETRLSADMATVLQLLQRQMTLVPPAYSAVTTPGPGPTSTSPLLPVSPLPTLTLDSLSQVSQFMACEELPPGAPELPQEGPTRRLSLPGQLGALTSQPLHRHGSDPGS

[25] = Anti-fibrosis activity in Ccl4-induced C57BL/6Nifdc mouse model assessed as decrease in serum triglyceride level administered at 0.03 to 0.1 mg/kg,po for 3 weeks; format: ADME, organism-based; conditions: in vivo, 504 h, dose 0.03-0.1 mg/kg
[26] = biological target: Retinoic acid receptor RXR-alpha (Homo sapiens) (UniProt P19793); assay: Agonist activity at RXRalpha (unknown origin) transfected in african green monkey COS7 cells assessed transactivation incubated at 1 uM for 16 hrs by luciferase assay; format: cell-based
Chain of Retinoic acid receptor RXR-alpha (Homo sapiens) (P19793 whole entry): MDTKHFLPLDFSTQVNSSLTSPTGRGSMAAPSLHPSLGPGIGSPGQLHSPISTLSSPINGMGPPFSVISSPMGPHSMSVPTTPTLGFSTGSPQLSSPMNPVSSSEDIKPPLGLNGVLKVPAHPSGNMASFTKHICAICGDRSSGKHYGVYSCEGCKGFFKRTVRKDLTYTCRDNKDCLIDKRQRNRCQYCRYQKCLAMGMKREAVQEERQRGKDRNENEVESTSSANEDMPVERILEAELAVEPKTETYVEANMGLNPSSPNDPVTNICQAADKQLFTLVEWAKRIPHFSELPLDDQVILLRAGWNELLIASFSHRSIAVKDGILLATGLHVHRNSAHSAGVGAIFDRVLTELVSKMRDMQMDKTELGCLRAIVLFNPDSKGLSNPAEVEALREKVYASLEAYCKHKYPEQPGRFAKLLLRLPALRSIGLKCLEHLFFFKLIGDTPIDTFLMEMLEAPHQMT

[27] = biological target: Nuclear receptor ROR-gamma (Homo sapiens) (UniProt P51449); assay: Agonist activity at RORgamma (unknown origin) transfected in african green monkey COS7 cells assessed transactivation incubated at 1 uM for 16 hrs by luciferase assay; format: cell-based
Chain of Nuclear receptor ROR-gamma (Homo sapiens) (P51449 whole entry): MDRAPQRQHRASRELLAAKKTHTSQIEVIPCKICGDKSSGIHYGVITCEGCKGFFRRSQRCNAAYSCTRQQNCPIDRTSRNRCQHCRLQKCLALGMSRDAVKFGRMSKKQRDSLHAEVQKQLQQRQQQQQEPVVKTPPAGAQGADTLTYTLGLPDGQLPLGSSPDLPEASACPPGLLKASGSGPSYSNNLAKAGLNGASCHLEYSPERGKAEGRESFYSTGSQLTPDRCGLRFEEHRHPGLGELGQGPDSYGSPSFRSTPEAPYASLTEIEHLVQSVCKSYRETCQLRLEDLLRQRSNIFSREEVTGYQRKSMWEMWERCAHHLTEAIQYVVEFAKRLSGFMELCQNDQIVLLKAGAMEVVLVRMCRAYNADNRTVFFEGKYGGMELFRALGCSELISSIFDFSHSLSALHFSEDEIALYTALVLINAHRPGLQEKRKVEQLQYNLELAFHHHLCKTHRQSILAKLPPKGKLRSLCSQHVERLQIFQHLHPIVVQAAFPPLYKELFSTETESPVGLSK

[28] = biological target: Bile acid receptor (Homo sapiens) (UniProt Q96RI1); assay: Agonist activity at FXR (unknown origin) transfected in african green monkey COS7 cells assessed transactivation incubated at 1 uM for 16 hrs by luciferase assay; format: cell-based
Chain of Bile acid receptor (Homo sapiens) (Q96RI1 whole entry): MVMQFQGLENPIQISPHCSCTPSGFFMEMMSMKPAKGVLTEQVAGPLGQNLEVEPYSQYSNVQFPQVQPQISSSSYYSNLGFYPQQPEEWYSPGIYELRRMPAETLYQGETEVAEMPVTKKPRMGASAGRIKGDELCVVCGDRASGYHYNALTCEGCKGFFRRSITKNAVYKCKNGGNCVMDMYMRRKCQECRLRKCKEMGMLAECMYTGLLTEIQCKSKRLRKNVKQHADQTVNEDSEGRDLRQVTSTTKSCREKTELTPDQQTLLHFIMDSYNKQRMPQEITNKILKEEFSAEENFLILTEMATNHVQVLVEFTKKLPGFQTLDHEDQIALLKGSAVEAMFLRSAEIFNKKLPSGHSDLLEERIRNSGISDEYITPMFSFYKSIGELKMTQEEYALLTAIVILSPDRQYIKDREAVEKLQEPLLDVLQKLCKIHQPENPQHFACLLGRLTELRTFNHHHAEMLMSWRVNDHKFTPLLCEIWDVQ

[29] = Anti-cholestatic activity in ANIT-induced C57BL/6Nifdc mouse model assessed as decrease in liver 3-H-7, 12-Dkca at 0.03 to 0.1 mg/kg, po upto 42 hrs measured after 48 hrs; format: ADME, organism-based; conditions: in vivo, 90 h, dose 0.03-0.1 mg/kg

Cc1cc(CN2C(=O)CN(c3ccc(C(F)(F)F)cc3)C2=O)cc(C)c1OC(C)(C)C(=O)O
Dose-Dependent Effect: Activity [5] | Activity [13]
7.6 mL/min/kg: CL [23]
8.4 mL/min/kg: CL [16]
Active: Activity [1] | Activity [2] | Activity [3] | Activity [4] | Activity [6] | Activity [9] | Activity [10] | Activity [11] | Activity [12] | Activity [14] | Activity [15] | Activity [17] | Activity [18] | Activity [22] | Activity [25] | Activity [29]
inactive: Activity [7] | Activity [20] | Activity [26] | Activity [27] | Activity [28]
> 30 µM: IC50 [24]
4250 ng·h/mL: AUC [21]
Non-Toxic: Activity [8] | Activity (HEK293) | Activity (COS-7) | Activity (HepG2) | Activity [19]
